Results as given in US9808003B2, “Herbicidally active 2-(substituted-phenyl)-cyclopentane-1,3-dione compounds and derivatives thereof” (Syngenta Limited, priority 2013, dated 2017).
Several values for one entry are separate records, joined by “and”; a condition that tells them apart may be missing. Equal values may be shown once.

Legend:
Format in all cases: in vivo
[1] = system: Alopecurus myosuroides (ALOMY); experiment: Test 1A glasshouse assay, pre-emergence herbicidal activity; settings: 312 h, 250 g/ha, 13 days after application, read-out: Pre-emergence herbicidal activity (% phytotoxicity) ALOMY
Experimental: (§1) Seeds of a variety of test species were sown in standard soil in pots. After cultivation for one day (pre-emergence) or after 8 days cultivation (post-emergence) under controlled conditions in a glasshouse (at 24/16° C., day/night; 14 hours light; 65% humidity), the plants were sprayed with an aqueous spray solution derived from the formulation of the technical active ingredient in acetone/water (50:50) solution containing 0.5% Tween 20 (polyoxyethelyene sorbitan monolaurate, CAS RN 9005-64-5). The test plants were then grown under controlled conditions in a glasshouse (at 24/16° C., day/night; 14 hours light; 65% humidity) and watered twice daily. 13 days after application of the test herbicide, for pre- and post-emergence, the test was evaluated visually for percentage phytotoxicity to the plant (where 100%=total damage to plant; 0%=no damage to plant).
(§2) Test plants: Lolium perenne (LOLPE), Alopecurus myosuroides (ALOMY), Echinochloa crus-galli (ECHCG), and Avena fatua (AVEFA); these are all grassy monocotyledonous weeds.

Avena fatua (AVEFA) [2] = experiment: as above; settings: 312 h, 250 g/ha, 13 days after application, read-out: Pre-emergence herbicidal activity (% phytotoxicity) AVEFA
Experimental: as §1, §2

[3] = system: Echinochloa crus-galli (ECHCG); experiment: as above; settings: 312 h, 250 g/ha, 13 days after application, read-out: Pre-emergence herbicidal activity (% phytotoxicity) ECHCG
Experimental: as §1, §2

Lolium perenne (LOLPE) = experiment: as above; settings: 312 h, 250 g/ha, 13 days after application, read-out: Pre-emergence herbicidal activity (% phytotoxicity) LOLPE
Experimental: as §1, §2

[4] = system: Alopecurus myosuroides (ALOMY); experiment: Test 1B glasshouse assay, post-emergence herbicidal activity against grassy weeds; settings: 14 DAA
Method in brief: (§3)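 Unformulated compound was dissolved as a 50 g/L emulsifiable IF50, then diluted in 0.5% v/v Adigor to spray plants 14 days after sowing. Usual rates were 60 g/ha with or without, or 90 and 120 g/ha with, 50 g/ha cloquintocet-mexyl. Visual % phytotoxicity at 14 DAA, mean of two replicates.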

Avena fatua (AVEFA) [5] = experiment: as above; settings: 14 DAA
Method in brief: as §3

[6] = system: Lolium multiflorum (LOLMU); experiment: as above; settings: 14 DAA
Method in brief: as §3

Poa annua (POAAN) = experiment: as above; settings: 14 DAA
Method in brief: as §3

Setaria viridis (SETVI) = experiment: as above; settings: 14 DAA
Method in brief: as §3

Winter Barley “Suzuka” = experiment: Test 1B glasshouse assay, post-emergence herbicidal activity against cereal crops; settings: for Post-emergence herbicidal activity against cereal crops, percentage phytotoxicity, Winter Barley “Suzuka”: 14 DAA
Method in brief: (§4)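 Visual percentage damage (100% = total, 0% = none) read 14 days after application, averaged over two replicates. Plants grown 14 days at 22/16 °C day/night before post-emergence spraying of unformulated compound (IF50/acetone, 0.5% v/v Adigor). Rates usually 60–120 g/ha; cloquintocet-mexyl 50 g/ha co-applied where stated.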

Winter Wheat “Hereward” = experiment: as above; settings: for Post-emergence herbicidal activity against cereal crops, percentage phytotoxicity, Winter Wheat “Hereward”: 14 DAA
Method in brief: as §4

[7] = 30 g/ha herbicide, 50 g/ha cloquintocet-mexyl
[8] = 45 g/ha herbicide, 50 g/ha cloquintocet-mexyl
[9] = 60 g/ha herbicide, 0 g/ha cloquintocet-mexyl
[10] = 60 g/ha herbicide, 50 g/ha cloquintocet-mexyl
[11] = herbicide 30 g/ha, cloquintocet-mexyl 50 g/ha
[12] = herbicide 60 g/ha, cloquintocet-mexyl 0 g/ha
[13] = herbicide 60 g/ha, cloquintocet-mexyl 50 g/ha
[14] = herbicide 45 g/ha, cloquintocet-mexyl 50 g/ha

Row | Compound | inhibition at 250 g/ha [1] | inhibition at 250 g/ha (Avena fatua (AVEFA) [2]) | inhibition at 250 g/ha [3] | inhibition at 250 g/ha (Lolium perenne (LOLPE)) | Post-emergence herbicidal activity, percentage phytotoxicity, ALOMY [4, 7] | Post-emergence herbicidal activity, percentage phytotoxicity, ALOMY [4, 8] | Post-emergence herbicidal activity, percentage phytotoxicity, ALOMY [4, 9] | Post-emergence herbicidal activity, percentage phytotoxicity, ALOMY [4, 10] | Post-emergence herbicidal activity, percentage phytotoxicity, AVEFA (Avena fatua (AVEFA) [5]; [7]) | Post-emergence herbicidal activity, percentage phytotoxicity, AVEFA (Avena fatua (AVEFA) [5]; [8]) | Post-emergence herbicidal activity, percentage phytotoxicity, AVEFA (Avena fatua (AVEFA) [5]; [9]) | Post-emergence herbicidal activity, percentage phytotoxicity, AVEFA (Avena fatua (AVEFA) [5]; [10]) | Post-emergence herbicidal activity, percentage phytotoxicity, LOLMU [6, 7] | Post-emergence herbicidal activity, percentage phytotoxicity, LOLMU [6, 8] | Post-emergence herbicidal activity, percentage phytotoxicity, LOLMU [6, 9] | Post-emergence herbicidal activity, percentage phytotoxicity, LOLMU [6, 10] | Post-emergence herbicidal activity, percentage phytotoxicity, POAAN (Poa annua (POAAN); [7]) | Post-emergence herbicidal activity, percentage phytotoxicity, POAAN (Poa annua (POAAN); [8]) | Post-emergence herbicidal activity, percentage phytotoxicity, POAAN (Poa annua (POAAN); [9]) | Post-emergence herbicidal activity, percentage phytotoxicity, SETVI (Setaria viridis (SETVI); [7]) | further results
1 | Cc1cc(C)c(C2C(=O)CC(CCNC(=O)c3cccc(F)n3)C2=O)c(C)c1 (racemic) [Compound A89] | 100% | 100% | 100% | 100% | 88% and 80% | 97% | 98% and 99% | 98% | 83% and 85% | 85% | 90% and 97% | 90% and 93% | 90% and 93% | 99% | 100% | 100% and 95% | 0% | 3% | 25% and 15% | 100% and 95% | Post-emergence herbicidal activity, percentage phytotoxicity, SETVI (Setaria viridis (SETVI); [8]): 100%; Post-emergence herbicidal activity, percentage phytotoxicity, SETVI (Setaria viridis (SETVI); [9]): 100% and 99%; Post-emergence herbicidal activity, percentage phytotoxicity, SETVI (Setaria viridis (SETVI); [10]): 100%; Post-emergence herbicidal activity against cereal crops, percentage phytotoxicity, Winter Barley “Suzuka” (Winter Barley “Suzuka”; [7]): 8%; Post-emergence herbicidal activity against cereal crops, percentage phytotoxicity, Winter Barley “Suzuka” (Winter Barley “Suzuka”; [8]): 20%; Post-emergence herbicidal activity against cereal crops, percentage phytotoxicity, Winter Barley “Suzuka” (Winter Barley “Suzuka”; [9]): 95%; Post-emergence herbicidal activity against cereal crops, percentage phytotoxicity, Winter Barley “Suzuka” (Winter Barley “Suzuka”; [10]): 73%; Percentage Phytotoxicity Winter Barley “Suzuka” (Winter Barley “Suzuka”; [11]): 8%; Percentage Phytotoxicity Winter Barley “Suzuka” (Winter Barley “Suzuka”; [12]): 90%; Percentage Phytotoxicity Winter Barley “Suzuka” (Winter Barley “Suzuka”; [13]): 25%; Post-emergence herbicidal activity against cereal crops, percentage phytotoxicity, Winter Wheat “Hereward” (Winter Wheat “Hereward”; [7]): 15%; Post-emergence herbicidal activity against cereal crops, percentage phytotoxicity, Winter Wheat “Hereward” (Winter Wheat “Hereward”; [8]): 25%; Post-emergence herbicidal activity against cereal crops, percentage phytotoxicity, Winter Wheat “Hereward” (Winter Wheat “Hereward”; [9]): 60%; Post-emergence herbicidal activity against cereal crops, percentage phytotoxicity, Winter Wheat “Hereward” (Winter Wheat “Hereward”; [10]): 28%; Percentage Phytotoxicity Winter Wheat “Hereward” (Winter Wheat “Hereward”; [11]): 10%; Percentage Phytotoxicity Winter Wheat “Hereward” (Winter Wheat “Hereward”; [12]): 75%; Percentage Phytotoxicity Winter Wheat “Hereward” (Winter Wheat “Hereward”; [13]): 25%
2 | Cc1cc(C)c(C2C(=O)CC(CCNC(=O)c3ccc(Br)cn3)C2=O)c(C)c1 (racemic) [Compound A120, 5-bromo-N-{2-[2,4-dioxo-3-(2,4,6-trimethylphenyl)cyclopentyl]ethyl}pyridine-2-carboxamide] | 90% | 70% | 100% | 100% | 75% | 80% | 85% | 80% | 75% | 78% | 85% | 78% | 98% | 99% | 100% | 99% | 3% | 3% | 10% | 100% | Post-emergence herbicidal activity, percentage phytotoxicity, POAAN (Poa annua (POAAN); [10]): 3%; Post-emergence herbicidal activity, percentage phytotoxicity, SETVI (Setaria viridis (SETVI); [8]): 100%; Post-emergence herbicidal activity, percentage phytotoxicity, SETVI (Setaria viridis (SETVI); [9]): 100%; Post-emergence herbicidal activity, percentage phytotoxicity, SETVI (Setaria viridis (SETVI); [10]): 100%; Percentage Phytotoxicity Winter Barley “Suzuka” (Winter Barley “Suzuka”; [11]): 15%; Percentage Phytotoxicity Winter Barley “Suzuka” (Winter Barley “Suzuka”; [14]): 40%; Percentage Phytotoxicity Winter Barley “Suzuka” (Winter Barley “Suzuka”; [12]): 88%; Percentage Phytotoxicity Winter Barley “Suzuka” (Winter Barley “Suzuka”; [13]): 40%; Percentage Phytotoxicity Winter Wheat “Hereward” (Winter Wheat “Hereward”; [11]): 38%; Percentage Phytotoxicity Winter Wheat “Hereward” (Winter Wheat “Hereward”; [14]): 50%; Percentage Phytotoxicity Winter Wheat “Hereward” (Winter Wheat “Hereward”; [12]): 68%; Percentage Phytotoxicity Winter Wheat “Hereward” (Winter Wheat “Hereward”; [13]): 50%
